Results as given in patent US7635686B2, “Therapeutically useful triethyleneglycol cholesteryl oligonucleotides” (Bioniche Life Sciences, Inc., priority 2001, dated 2009).

How the values were obtained:
[1] = tested on: MEG-01 cells; test: Apoptosis by phosphatidylserine redistribution (FITC-annexin V flow cytometry) in MEG-01 cells; assay type: cell-based, human; settings: 48 hours; for Percentage of positive cells for phosphatidylserine (cells in apoptosis) in MEG-01 cells: untreated cells 12%
Method: Redistribution of plasma membrane phosphatidylserine is a characteristic of cells undergoing apoptosis (Martin et al., J. Exp. Med., 182:1545, 1995). The redistribution of phosphatidylserine in the plasma membrane during apoptosis was measured by flow cytometry using FITC (fluorescein isothiocyanate)-conjugated annexin V (BD Pharmingen, San Diego, Calif.). MEG-01 cells, a human chronic myelogeneous leukemia cell line positive for the Philadelphia chromosome and having a BCR-ABL gene fusion, were incubated at 2.5×10^5 cells/ml for 48 hours with 5.3, 26.5 and 53.0 μM final concentrations of SEQ ID NO:1, SEQ ID NO:2, SEQ ID NO:5, SEQ ID NO:6 and cholesteryl-TEG phosphoramidite molecule. The percentage of cells in apoptosis after exposure to the SEQ ID NOs:1, 2, 5, 6, or cholesteryl-TEG phosphoramidite treatment is reported in Table 2. The percentage of apoptosis in untreated MEG-01 cells was 12%.

[2] = tested on: HIG-82 cells; test: HIG-82 synovial cell proliferation (MTT reduction); assay type: cell-based, rabbit; settings: 53 μM, 48 hours
Method: Adherent HIG-82 cells, a synovial cell line, were incubated at 10×10^5 cells/ml for 48 hours with 53 μM (final concentration) of SEQ ID NO:2, SEQ ID NO:3, SEQ ID NO:4, SEQ ID NO:6, SEQ ID NO:7, or SEQ ID NO:8. Cellular proliferation was measured using dimethylthiazol-diphenyl-tetrazolium (MTT) reduction (Mosman et al., J. Immunol. Methods 65:55, 1983). MTT was measured at a wavelength of 570 nm using a multiple spectrophotometer reader (ELX800, Bio-TEK, Instruments Inc., Winooski, Vt.). The percentage of inhibition, calculated as […]

[3] = tested on: HIG-82 cells; test: Apoptosis by nuclear DNA fragmentation (TUNEL, flow cytometry) in HIG-82 cells; assay type: cell-based, rabbit; settings: 53 μM
Method: Adherent HIG-82 cells were incubated at 1.0×10^5 cells/ml for 48 hours with 53 μM final concentration of SEQ ID NO:1, SEQ ID NO:2, SEQ ID NO:5 or SEQ ID NO:6. Since phosphatidylserine/annexin V detection of apoptosis was not reliable after adherent cell harvesting techniques, such as trypsinization (van Engeland, Cytometry, 31:1, 1998), apoptosis in HIG-82 cells was evaluated using flow cytometry by the detection of fragmented DNA by terminal deoxynucleotidyl transferase enzyme-mediated bromodeoxyuridine triphosphate-biotin nick end-labeling (TUNEL) using a commercial assay (APO-BRDU™ kit; BD Pharmingen). The percentage of cells containing nuclear DNA fragmentation was determined. After 24 hours, untreated HIG-82 cells were essentially negative for nuclear DNA fragmentation.

[4] = tested on: MEG-01 cells; test: Cell cycle stage in MEG-01 cells (propidium iodide flow cytometry); assay type: cell-based, human; settings: 24 h
Method: To determine a cell cycle stage, various assays and procedures known to one skilled in the art may be employed. One such procedure uses a CYCLETEST™ PLUS DNA commercial kit (Becton Dickinson, Franklin Lakes, N.J.). Briefly, nuclei from cells are obtained by dissolving the cell membrane in a nonionic detergent, eliminating the cell cytoskeleton and nuclear proteins with trypsin, digesting the cellular RNA with RNase, and stabilizing the nuclear chromatin with spermine. Propidium iodide is added to the cell nuclei and their fluorescence was analyzed in a flow cytometer equipped with electronic doublet discrimination capability (FACSCalibur, Becton Dickinson, Franklin Lakes, N.J.). Accumulation of cells in G0/G1, early S (SE), mid S (SM), late S (SL) or G2/M phases of the cell cycle may be analyzed using MODFIT LT software (Verity Software House Inc., Topsham, Mass.), or other appropriate software.
Exponentially growing MEG-01 cells (2×10^5 cells/ml) were incubated for 24 h with 0 μM (control), 53 μM of SEQ ID NO:2 or 53 μM of SEQ ID NO:6. The cells were collected, centrifuged, and cell cycle stage was determined.

[5] = tested on: Hs578T cells; test: Release of nuclear mitotic apparatus protein (NuMA) by Hs578T cells (ELISA); assay type: cell-based, human; settings: Hs578T monolayer, 53 μM, 72 hrs; percentage increase
Method: Hs578T cells were cultured as monolayer in negative control conditions or with 53 μM final concentraition of SEQ ID NO:2, 53 μM of SEQ ID NO:6 for 72 hrs. The release of nuclear mitotic apparatus protein (NuMA) was used as a measure of apoptosis. NuMA was determined using a commercial ELISA kit following the manufacturer's protocol. Results are shown in Table 11 and are expressed as the percentage increase in NuMA release compared to control conditions based on optical density measurements.

## 5′ OH-GGGAGG-OH 3′ (listed as DNA, chemistry not fully specified) [SEQ ID NO:2]
[1]; 5.3 μM
  Percentage of positive cells for phosphatidylserine (cells in apoptosis) in MEG-01 cells: 12%
[1]; 26.5 μM
  Percentage of positive cells for phosphatidylserine (cells in apoptosis) in MEG-01 cells: 12%
[1]; 53.0 μM
  Percentage of positive cells for phosphatidylserine (cells in apoptosis) in MEG-01 cells: 12%
[1]; translocation of phosphatidylserine, up to 53.0 μM
  Induction of apoptosis in MEG-01 cells (in words): inactive
[2]
  Inhibition of proliferation of synovial HIG-82 cells (in words): did not inhibit proliferation
[2]; MTT
  Inhibition of HIG-82 cell proliferation, inhibition (%): 6%
[3]; 48 hours, TUNEL
  Percentage of cells containing DNA fragmentation (cells in apoptosis) in HIG-82 cells: 1%
[3]; fragmented nuclear DNA
  Induction of apoptosis in HIG-82 cells (in words): inactive
[4]; 53 μM
  Induction of cell cycle arrest in MEG-01 cells (in words): inactive
[4]; MEG-01, 53 μM, untreated 10.8
  % of cells in phase SM: 11.6%
[4]; MEG-01, 53 μM, untreated 17.8
  % of cells in phase SL + G2/M: 19.8%
[4]; MEG-01, 53 μM, untreated 71.4
  % of cells in phase G0/G1 + SE: 68.6%
[5]
  NuMA release compared to control (%): +8%
